Measured values: article PMC3666196, “Formulation and Particle Size Reduction Improve Bioavailability of Poorly Water-Soluble Compounds with Antimalarial Activity” (Malaria Research and Treatment, 2013)

Key:
[1] = design: method as in PMID 11000543; settings: formulated into various solid dispersions; cited from earlier work
[2] = Particle size measurement by laser scattering (Horiba LA-950) and stability of suspensions stored at 4°C; type: physicochemical
Protocol: The particle size was measured using a Horiba LA-950 particle size distribution analyzer (Kyoto, Japan), based on laser scattering. This particular instrument has a measurement period of less than 2 minutes from introduction of sample to data presentation with a sample requirement for testing of 2–5 mg per measurement in a 150 mL flow cell, depending on the sample type. All DQ and WR2996666 preparations were measured at a range of transmittance between 80–90%. Various volumes ranging from 100 μL to 800 μL of samples with about 5–10 mg solid from each vial were tested in this instrument to determine the mean particle size, which was the particle size parameter referred in the results. In order to see the change of particle size of various preparations over time, an accelerated stability study of prepared micro- and nanosuspensions were carried out at a temperature of 4°C for a period of up to 3 weeks. Accurately weighed amounts of samples were placed into glass vials with aluminum-lined caps and stored in a microprocessor-controlled humidity chamber, and the samples were then characterized as a function of exposed time. The stability of particles shown in Tables 1 and 2 was some of the preparations evaluated in this study. Generally, the particles in aqueous suspension dosed in our animals were stable for at least 3 weeks.

[3] = HPLC check of drug integrity after formulation and HPH; type: physicochemical; settings: any of the preparations including microparticles and nanoparticles
Protocol: The rehydrated DQ nanoparticle formulations were evaluated by particle size measurement, determination of drug concentration in the whole suspension as well as in the fine particles less than […], and PK study in drug dosed animals. The particle size was monitored throughout the preparation procedure and before and after animal studies. To ensure that there was no change of the drug integrity in any of the formulation procedure, drug concentrations and chromatography profiles of the drug molecule identity were examined by an Agilent HPLC (Agilent Technologies, Foster City, CA) with an isocratic mobile phase of 20% water and 80% acetonitrile (0.1% formic acid contained in water and acetonitrile, resp.). All drug preparations in aqueous system were diluted in methanol with vigorous vortex and then in acetonitrile for HPLC analysis. This was done to obtain complete extraction of the compound prior to loading the samples to HPLC. To evaluate the amount of DQ in the fine particles, formulation suspensions were prepared in the amount of 10 mg/mL of DQ in water, incubated at 37°C for 2 hours and passed through a […] size filter. […] In order to determine the actual dosage of the drug for animal studies, the concentration of the drug used for dosing animals was determined by HPLC without prior particle size fractionation with filtration.

[4] = design: method as in earlier work; settings: buffered water pH 4–9; cited from earlier work

Q: Which “Increase in absolute bioavailability” value [1] does the source give for CCCCN(CCCC)CCC(O)c1cc2c(Cl)cc(Cl)cc2c2cc(C(F)(F)F)ccc12 (stereo not drawn) [halofantrine] here?
A: five- to seven

Q: With CCCCCCCCCCOc1cc2c(O)c(C(=O)OCC)cnc2cc1OCC [DQ, ethyl 6-decyloxy-7-ethoxy-4-hydroxy-3-quinolinecarboxylate, reference compound] as the molecule, how does the “Particle size of generated nanoparticles” value ([2]; DQ formulation with poloxamer 407 as surfactant, after HPH) read?
A: > 0.5 μm

Q: What about the Particle size ([2]; DQ in water or HECT suspension, method HG (homogenizer with generator), stored at 4°C, Week 1) of the same molecule?
A: 99.23 μm

Q: And the Particle size ([2]; DQ suspension in HECT, method US (ultra-sonicator), stored at 4°C, Week 1)?
A: 36.62 μm

Q: What about the Particle size ([2]; DQ suspension, method HG, stored at 4°C, Mean of weeks 1-3) of the same molecule?
A: 102.04 μm

Q: And the Particle size ([2]; DQ suspension, method HG, stored at 4°C, Week 2)?
A: 101.33 μm

Q: And the Particle size ([2]; DQ suspension, method HG, stored at 4°C, Week 3)?
A: 105.56 μm

Q: What about the Particle size ([2]; DQ suspension, method US, stored at 4°C, Mean of weeks 1-3) of the same molecule?
A: 36.88 μm

Q: And the Particle size ([2]; DQ suspension, method US, stored at 4°C, Week 2)?
A: 36.97 μm

Q: What about the Particle size ([2]; DQ suspension, method US, stored at 4°C, Week 3) of the same molecule?
A: 36.92 μm

Q: What about the Particle size ([2]; DQ, method SD (solid dispersion) plus HPH, in water, stored at 4°C, Week 1) of the same molecule?
A: 0.401 μm

Q: And the Particle size ([2]; DQ, method SD plus HPH, stored at 4°C, Mean of weeks 1-3)?
A: 0.392 μm

Q: And the Particle size ([2]; DQ, method SD plus HPH, stored at 4°C, Week 2)?
A: 0.384 μm

Q: What about the Particle size ([2]; DQ, method SD plus HPH, stored at 4°C, Week 3) of the same molecule?
A: 0.377 μm

Q: What about the “Particle size of DQ formulations” value ([2]; solid dispersion with polymers and surfactants, sonication followed by HPH at 1500–2500 bars, 120 homogenization cycles) of the same molecule?
A: 0.2–0.4 μm

Q: And the “Chromatography profile (mass quantity, retention time) after formulation process and HPH” value [3]?
A: no change in chromatography profile

Q: And the Solubility in water [4]?
A: < 0.01 µg/mL

Q: Which Particle size ([2]; WR299666, HPH at 2500 bars in 6 homogenization cycles) does the source give for [H]/N=C(/N=C1NC(=O)C(=O)N1C)Nc1ccc(Cl)c(Cl)c1 [WR299666, (E)-1-(3,4-dichlorophenyl)-3-(1-methyl-4,5-dioxoimidazolidin-2-ylidene) guanidine] here?
A: 0.38–0.48 μm

Q: What about the Particle size ([2]; WR299666 in water or HECT suspension, method Grinder, stored at 4°C, Week 1) of the same molecule?
A: 42.54 μm

Q: And the Particle size ([2]; WR299666 suspension, method Grinder, stored at 4°C, Mean of weeks 1-3)?
A: 42.22 μm

Q: And the Particle size ([2]; WR299666 suspension, method Grinder, stored at 4°C, Week 2)?
A: 41.07 μm

Q: What about the Particle size ([2]; WR299666 suspension, method Grinder, stored at 4°C, Week 3) of the same molecule?
A: 43.05 μm

Q: What about the Particle size ([2]; WR299666 suspension, method HG, stored at 4°C, Mean of weeks 1-3) of the same molecule?
A: 61.88 μm

Q: And the Particle size ([2]; WR299666 suspension, method HG, stored at 4°C, Week 1)?
A: 66.31 μm

Q: And the Particle size ([2]; WR299666 suspension, method HG, stored at 4°C, Week 2)?
A: 71.85 μm

Q: What about the Particle size ([2]; WR299666 suspension, method HG, stored at 4°C, Week 3) of the same molecule?
A: 47.49 μm

Q: And the Particle size ([2]; WR299666 suspension, method HPH, stored at 4°C, Mean of weeks 1-3)?
A: 0.406 μm

Q: And the Particle size ([2]; WR299666 suspension, method HPH, stored at 4°C, Week 1)?
A: 0.376 μm

Q: What about the Particle size ([2]; WR299666 suspension, method HPH, stored at 4°C, Week 2) of the same molecule?
A: 0.397 μm

Q: What about the Particle size ([2]; WR299666 suspension, method HPH, stored at 4°C, Week 3) of the same molecule?
A: 0.445 μm

Q: What about the Particle size ([2]; WR299666 suspension, method US, stored at 4°C, Mean of weeks 1-3) of the same molecule?
A: 1.5 μm

Q: And the Particle size ([2]; WR299666 suspension, method US, stored at 4°C, Mean of weeks 1-3, listed as W299666)?
A: 1.50 μm

Q: And the Particle size ([2]; WR299666 suspension, method US, stored at 4°C, Week 1)?
A: 1.52 μm

Q: And the Particle size ([2]; WR299666 suspension, method US, stored at 4°C, Week 2)?
A: 1.58 μm

Q: And the Particle size ([2]; WR299666 suspension, method US, stored at 4°C, Week 3)?
A: 1.41 μm

Q: What about the “Average particle size of starting raw material” value ([2]; without treatment) of the same molecule?
A: above 70 μm
